{"source": "patent US20030073737A1", "about": "“Tolerance induction” (priority 2001, published 2003)", "key": {"donor heart graft": {"tested_on": "donor heart graft", "assay": "Rat heterotopic heart transplantation, graft survival", "format": "in vivo", "conditions": "Lewis/BN rats; i.v. or s.c., daily dose up to 1 mg/kg for 1-12 weeks, e.g. 4 weeks; daily palpation of beating donor heart", "text": "1. Rat Heterotopic Heart Transplantation\nThe strain combination used: Male Lewis (RT^1 haplotype) and BN (RT^1 haplotype). The animals are anaesthetised using inhalational isofluorane. […] The aorta is ligated and divided distal to the first branch and the brachiocephalic trunk is divided at the first bifurcation. The left pulmonary artery is ligated and divided and the right side divided but left open. All other vessels are dissected free, ligated and divided and the donor heart is removed into iced saline.\nThe recipient is prepared by dissection and cross-clamping of the infra-renal abdominal aorta and vena cava. The graft is implanted with end-to-side anastomoses, using 10/0 monofilament suture, between the donor brachiocephalic trunk and the recipient aorta and the donor right pulmonary artery to the recipient vena cava. The clamps are removed, the graft tethered retroabdominally, the abdominal contents washed with warm saline and the animal is closed and allowed to recover under a heating lamp. Graft survival is monitored by daily palpation of the beating donor heart through the abdominal wall. Rejection is considered to be complete when heart beat stops."}, "[1]": {"tested_on": "mixed lymphocyte reaction", "conditions": "as described in WO 99/50388; cited from earlier work"}}}
{"substance": "Tautomycetin", "values": [{"measurement": "graft survival", "setting": "donor heart graft", "result": "Increases of graft survival are obtained beyond treatment time"}, {"measurement": "inhibition of the mixed lymphocyte reaction", "setting": "[1]", "result": "inhibition of the mixed lymphocyte reaction"}]}
